# Measured values reported in patent US9273330B2, “Butanol tolerance in microorganisms” (Butamax Advanced Biofuels LLC, priority 2012, dated 2016).
# Key:
# [1] = test system: isobutanologen PNY1530; assay: Isobutanol selection: viable cell count after 24 hour exposure of high-density PNY1530 cultures; format: cell-based, Saccharomyces cerevisiae
# Experimental: Cultures of PNY1530 were subjected to five rounds of selection in increasing concentrations of isobutanol. The first round of isobutanol selection was initiated by growing PNY1530 to OD600=1.8 in 100 ml of SEU culture medium (yeast nitrogen base supplemented with Sigma yeast synthetic dropout medium without uracil (Sigma Y1501) and with 0.2% ethanol). The cells were centrifuged, resuspended in 100 ml of fresh culture medium and grown for several hours to approximately 3 OD600 units. The culture was centrifuged and resuspended at OD600=100 (approximately 5×10^8 cfu/ml) in 3 ml of culture medium without ethanol. A small sample was removed from the cell suspension for a viable cell count, and the remaining cell suspension was divided into three cultures containing 1.5% isobutanol, 1.7% isobutanol or 2.0% isobutanol. Each culture was incubated at 30° C. on a roller drum for 24 hours. The cultures were then centrifuged, and the cell pellets were each resuspended in 1 ml of culture medium without isobutanol or ethanol. Small samples were removed from the cultures for viable cell counts, and the remaining portion of each cell suspension (approximately 975 μl) was inoculated into 10 ml of SEU culture medium. The cultures were incubated at 30° C. with shaking. In general, each subsequent round of isobutanol selection was initiated with cells that had survived the highest level of isobutanol selection in the previous round of exposure.
# Increased numbers of survivors were observed following each exposure to isobutanol (Table 7). For example, only 1.8% of the cells survived 24 hour exposure to 2.0% isobutanol during Selection I whereas 100% of the population survived 24 hour exposure to 2.0% isobutanol during Selection IV.
# [2] = test system: population of cells that had survived 24 hour exposure to 2.5% isobutanol during Selection IV; assay: Serial passage in SEGU culture medium with glucose and isobutanol; format: cell-based, Saccharomyces cerevisiae; settings: 30° C., after 48 hours (1:2 dilution after 24 hours)
# Experimental: A population of cells that had been evolved through four isobutanol exposures (Selection IV, Example 2) was repeatedly sub-cultured in growth medium supplemented with glucose and isobutanol to select for cells that were better able to utilize glucose in the presence of isobutanol.
# A population of cells that had survived 24 hour exposure to 2.5% isobutanol during Selection IV (see Table 7) was diluted into SEGU culture medium (SEU with 0.2% glucose) to OD600=0.8. The diluted cell suspension was divided into 1.5 ml cultures, dispensed into 2 ml sterile screw cap tubes and supplemented with various concentrations of isobutanol. The cultures were incubated at 30° C. on a roller drum. After 24 hours, the cultures were diluted 1:2 with the SEGU culture medium comprising the same amount of isobutanol as the previous culture. […] The 0.5% culture was serially sub-cultured 10 times by diluting the culture to approximately OD600=0.5 in SEGU culture medium containing 0.5% isobutanol and incubating the diluted culture at 30° C. for 24 to 48 hours before diluting the culture again.
structure (smiles),measurement,setting,value
"CC(C)CO [Isobutanol, 2-methyl-1-propanol]",Percent Survival,"[1]; 1.5% isobutanol, Selection I",73
same,Percent Survival,"[1]; 1.7% isobutanol, Selection I",53
same,Percent Survival,"[1]; 2.0% isobutanol, Selection I",1.8 →
same,Percent Survival,"[1]; 2.0% isobutanol, Selection I, listed as isobutanol",1.8
same,Percent Survival,"[1]; 2.0% isobutanol, Selection II",12 →
same,Percent Survival,"[1]; 2.0% isobutanol, Selection III",21
same,Percent Survival,"[1]; 2.0% isobutanol, Selection IV",100
same,Percent Survival,"[1]; 2.2% isobutanol, Selection III",0.8
same,Percent Survival,"[1]; 2.2% isobutanol, Selection IV",45
same,Percent Survival,"[1]; 2.5% isobutanol, Selection II",0.0003
same,Percent Survival,"[1]; 2.5% isobutanol, Selection III",0.0006 →
same,Percent Survival,"[1]; 2.5% isobutanol, Selection IV",14 →
same,Percent Survival,"[1]; 2.5% isobutanol, Selection V",4.5
same,Percent Survival,"[1]; 2.7% isobutanol, Selection II",no survivors were detected
same,Percent Survival,"[1]; 2.7% isobutanol, Selection V",0.004
same,highest concentration that permitted growth,[2],0.5%
